The target of test [1] is T1, G12V-mutant human KRAS (amino acid residues 1-188) (Homo sapiens, UniProt P01116, G12V).
T1 construct: G12V-mutant human KRAS (amino acid residues 1-188) with FLAG tag was purified from E. coli; made in house; host or cells: E. coli
The test can be described thus: KRAS Binding Competition Assay (AlphaScreen; biotinylated KRpep-2d analogue), G12V. As to conditions: geometric mean, read-out: KRAS GMean IC50 (uM) MUTATION: G12V. On the procedure: Compound binding disrupts the interaction of KRpep-2d with KRAS, leading to a decrease in Alpha signal.
All assay components were prepared in 20 mM HEPES (pH 7.5), 100 mM NaCl, 5 mM MgCl2, 0.01% Tween-20, and 0.01% BSA. Biotinylated analogues of KRpep-2d were custom synthesized. The binding competition assays were performed using 10 nM of mutant KRAS and 10 nM of biotinylated KRpep-2d analogue. 19 μL of KRAS protein and 4 μL of biotinylated KRpep-2d were added to the wells of a 384-well plate containing 1 μL of various concentrations of test compound or DMSO vehicle. 16 wells containing KRAS, biotinylated KRpep-2d, and 5% DMSO served as high controls. 16 wells containing KRAS only and 5% DMSO served as low controls. Binding reactions were incubated for 1 hour at 25° C., then Anti-Flag Acceptor and Streptavidin Donor Alpha beads were added at a final concentration of 10 μg/mL for an additional hour at room temperature. Alpha signal was read out on a Perkin Elmer Envision HTS instrument. The percentage inhibition at individual compound concentrations relative to high and low controls was calculated. The data were analyzed by using nonlinear regression to generate IC50 values.

For test [2], the target named is T2, G12D-mutant human KRAS (amino acid residues 1-188) (Homo sapiens, UniProt P01116, G12D).
T2 construct: G12D or G12C-mutant human KRAS (amino acid residues 1-188) with FLAG tag; made in house; host or cells: E. coli
The experiment in a line: KRAS Binding Disruption Assay (AlphaScreen; biotinylated KRpep-2d analogue or RAF1-RBD), G12D. The following applies: KRAS G12D; geometric mean; read-out: KRAS GMean IC50 (uM) MUTATION: G12D. In short, it runs like this: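 Mutant KRAS (5-20 nM) incubated 1 h at 25° C with test compound and 5-20 nM biotinylated KRpep-2d analogue or RAF1-RBD in 20 mM HEPES pH 7.5, 100 mM NaCl, 5 mM MgCl2, 0.01% Tween-20, 0.01% BSA.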

SMILES strings stand for the structures.

For `Cc1cccc2cccc(-c3ccc4c(N5CC6CCC(C5)N6C(=O)CC#N)nc(OC[C@@H]5CCCN5C)nc4c3F)c12` (racemic) [P-0019, 3-((1R,5S)-3-(8-fluoro-7-(8-methylnaphthalen-1-yl)-2-(((RS)-1-methylpyrrolidin-2-yl)methoxy)quinazolin-4-yl)-3,8-diazabicyclo[3.2.1]octan-8-yl)-3-oxopropanenitrile], the IC50 in test [1] and in test [2] was 10 to 100 µM in each case.

Consider `CN1CCC[C@H]1COc1nc(N2CC3COCC(C2)N3C(=O)NC2CCOC2)c2ccc(-c3cc(O)cc4ccccc34)c(F)c2n1` (mixture of isomers) [P-0251, rac-7-(8-fluoro-7-(3-hydroxynaphthalen-1-yl)-2-(((R)-1-methylpyrrolidin-2-yl)methoxy)quinazolin-4-yl)-N-(tetrahydrofuran-3-yl)-3-oxa-7,9-diazabicyclo[3.3.1]nonane-9-carboxamide], for which the concentration for half-maximal inhibition (IC50) in test [1] and in test [2] was 0.0001 to 10 µM each time.

Take `CN1CCC[C@H]1COc1nc(N2CC3CCC(C2)N3)c2ccc(N3CC(O)Cc4ccccc43)cc2n1` (mixture of isomers) [P-0256, 1-(4-((1R,5S)-3,8-diazabicyclo[3.2.1]octan-3-yl)-2-(((RS)-1-methylpyrrolidin-2-yl)methoxy)quinazolin-7-yl)-1,2,3,4-tetrahydroquinolin-3-ol]: the IC50 in test [1] and in test [2] was 10 to 100 µM throughout.

As for `CN1CCC[C@H]1COc1nc(N2CC3CCC(C2)N3C(=O)CCCN2CCOCC2)c2ccc(-c3cc(O)cc4ccccc34)c(F)c2n1` (racemic) [P-0429, 1-((1R,5S)-3-(8-fluoro-7-(3-hydroxynaphthalen-1-yl)-2-(((RS)-1-methylpyrrolidin-2-yl)methoxy)quinazolin-4-yl)-3,8-diazabicyclo[3.2.1]octan-8-yl)-4-morpholinobutan-1-one], the values for the half-inhibitory concentration (IC50) in test [1] and in test [2] were 10 to 100 µM and 0.0001 to 10 µM, respectively.

Consider `Oc1cc(-c2ccc3c(N4C[C@H]5CC[C@@H](C4)N5)nc(OCC45CCCN4CCC5)nc3c2Cl)c2ccccc2c1` [P-0003, 4-(4-((1R,5S)-3,8-diazabicyclo[3.2.1]octan-3-yl)-8-chloro-2-((tetrahydro-1H-pyrrolizin-7a(5H)-yl)methoxy)quinazolin-7-yl)naphthalen-2-ol], for which the IC50 in test [1] and in test [2] was 0.0001 to 10 µM in each case.

Take `CN1CCC[C@H]1CNc1nc(N2C[C@H]3CC[C@@H](C2)N3)c2ccc(-c3cc(O)cc4ccccc34)cc2n1` [P-0016, 4-(4-((1R,5S)-3,8-diazabicyclo[3.2.1]octan-3-yl)-2-((((S)-1-methylpyrrolidin-2-yl)methyl)amino)quinazolin-7-yl)naphthalen-2-ol]: the IC50 in test [1] fell in the range of 10 to 100 µM; in test [2], 0.0001 to 10 µM.

On to `Cc1ccc2[nH]ncc2c1-c1c(Cl)cc2c(N3C[C@H]4CC[C@@H](C3)N4)nc(OC[C@@H]3CCCN3C)nc2c1F` [P-0028, 4-((1R,5S)-3,8-diazabicyclo[3.2.1]octan-3-yl)-6-chloro-8-fluoro-7-(5-methyl-1H-indazol-4-yl)-2-(((S)-1-methylpyrrolidin-2-yl)methoxy)quinazoline], for which the values for the 50% inhibitory concentration (IC50) in test [1] and in test [2] were 100 to 1000 µM and 0.0001 to 10 µM, respectively.

`O=C(NCCN1CCOCC1)N1[C@@H]2CC[C@H]1CN(c1nc(OCC34CCCN3CCC4)nc3cc(-c4cc(O)cc5ccccc45)ccc13)C2` [P-0029, (1R,5S)-3-(7-(3-hydroxynaphthalen-1-yl)-2-((tetrahydro-1H-pyrrolizin-7a(5H)-yl)methoxy)quinazolin-4-yl)-N-(2-morpholinoethyl)-3,8-diazabicyclo[3.2.1]octane-8-carboxamide]: the 50% inhibitory concentration (IC50) in test [1] and in test [2] was 0.0001 to 10 µM in each case.

For the compound `CN1CCC[C@H]1COc1nc(N2CC3CC(C2)N3)c2cc(Cl)c(-c3cc(O)cc4ccccc34)c(F)c2n1` [P-0031, 4-(4-(3,6-diazabicyclo[3.1.1]heptan-3-yl)-6-chloro-8-fluoro-2-(((S)-1-methylpyrrolidin-2-yl)methoxy)quinazolin-7-yl)naphthalen-2-ol], the IC50 in test [1] was 10 to 100 µM; in test [2], 0.0001 to 10 µM.

For the compound `CN1CCC[C@H]1COc1nc(N2C[C@@H]3C[C@H]2CN3)c2cc(Cl)c(-c3cc(O)cc4ccccc34)c(F)c2n1` [P-0042, 4-(4-((1S,4S)-2,5-diazabicyclo[2.2.1]heptan-2-yl)-6-chloro-8-fluoro-2-(((S)-1-methylpyrrolidin-2-yl)methoxy)quinazolin-7-yl)naphthalen-2-ol], the figures for the IC50 in test [1] and in test [2] were 10 to 100 µM and 0.0001 to 10 µM, respectively.

With `CN1CCC[C@H]1COc1nc(N2C[C@H]3CC[C@@H](C2)N3)c2cc(Cl)c(-c3cc(O)cc4ccccc34)cc2n1` [P-0043, 4-(4-((1R,5S)-3,8-diazabicyclo[3.2.1]octan-3-yl)-6-chloro-2-(((S)-1-methylpyrrolidin-2-yl)methoxy)quinazolin-7-yl)naphthalen-2-ol], the half-maximal inhibitory concentration (IC50) in test [1] lay within 10 to 100 µM; in test [2], 0.0001 to 10 µM.

Turning to `CN1CCC[C@H]1COc1nc(N2CCC3CCC(C2)N3)c2cc(Cl)c(-c3cc(O)cc4ccccc34)c(F)c2n1` (stereo partly drawn) [P-0046, 4-(4-(3,9-diazabicyclo[4.2.1]nonan-3-yl)-6-chloro-8-fluoro-2-(((S)-1-methylpyrrolidin-2-yl)methoxy)quinazolin-7-yl)naphthalen-2-ol], the concentration for half-maximal inhibition (IC50) in test [1] was 10 to 100 µM; in test [2] it was 0.0001 to 10 µM.

With `Oc1cc(-c2c(Cl)cc3c(N4C[C@H]5CC[C@@H](C4)N5)nc(OCC45CCCN4CC(F)(F)C5)nc3c2F)c2ccccc2c1` (stereo partly drawn) [P-0047, 4-(4-((1R,5S)-3,8-diazabicyclo[3.2.1]octan-3-yl)-6-chloro-2-((2,2-difluorotetrahydro-1H-pyrrolizin-7a(5H)-yl)methoxy)-8-fluoroquinazolin-7-yl)naphthalen-2-ol], the half-inhibitory concentration (IC50) in test [1] and in test [2] was 0.0001 to 10 µM in each case.

As for `CN1CCC[C@H]1COc1nc(N2CC3CCC2CN3)c2ccc(-c3cc(O)cc4ccccc34)cc2n1` (stereo partly drawn) [P-0050, 4-(4-(2,5-diazabicyclo[2.2.2]octan-2-yl)-2-(((S)-1-methylpyrrolidin-2-yl)methoxy)quinazolin-7-yl)naphthalen-2-ol], the IC50 in test [1] was in the range of 10 to 100 µM; in test [2] it was 0.0001 to 10 µM.

In the case of `Oc1cc(-c2ccc3c(C4=C[C@@H]5CC[C@H](C4)N5)nc(OCC45CCCN4CCC5)nc3c2)c2ccccc2c1` [P-0054, 4-(4-((1S,5R)-8-azabicyclo[3.2.1]oct-2-en-3-yl)-2-((tetrahydro-1H-pyrrolizin-7a(5H)-yl)methoxy)quinazolin-7-yl)naphthalen-2-ol], the IC50 lay in the range of 10 to 100 µM in test [1] and 0.0001 to 10 µM in test [2].

For `CN1C[C@H](F)C[C@H]1COc1nc(N2C[C@H]3CC[C@@H](C2)N3)c2ccc(-c3cc(O)cc4ccccc34)cc2n1` [P-0072, 4-(4-((1R,5S)-3,8-diazabicyclo[3.2.1]octan-3-yl)-2-(((2S,4R)-4-fluoro-1-methylpyrrolidin-2-yl)methoxy)quinazolin-7-yl)naphthalen-2-ol], the IC50 in test [1] and in test [2] was 0.0001 to 10 µM each time.

Consider `Cc1cccc2cc(O)cc(-c3ccc4c(N5C[C@H]6CC[C@@H](C5)N6)nc(OC[C@@H]5CCCN5C)nc4c3F)c12` [P-0073, 4-(4-((1R,5S)-3,8-diazabicyclo[3.2.1]octan-3-yl)-8-fluoro-2-(((S)-1-methylpyrrolidin-2-yl)methoxy)quinazolin-7-yl)-5-methylnaphthalen-2-ol], for which the IC50 in test [1] and in test [2] was 0.0001 to 10 µM each time.

As for `O=C(NC1CCCC1)N1[C@@H]2CC[C@H]1CN(c1nc(OCC34CCCN3CCC4)nc3cc(-c4cc(O)cc5ccccc45)ccc13)C2` [P-0075, (1R,5S)-N-cyclopentyl-3-(7-(3-hydroxynaphthalen-1-yl)-2-((tetrahydro-1H-pyrrolizin-7a(5H)-yl)methoxy)quinazolin-4-yl)-3,8-diazabicyclo[3.2.1]octane-8-carboxamide], the IC50 in test [1] and in test [2] was 0.0001 to 10 µM in each case.

On to `Oc1cc(-c2ccc3c(N4C[C@H]5CC[C@@H](C4)N5)nc(OC[C@@H]4CCCN4CCF)nc3c2)c2ccccc2c1` [P-0077, 4-(4-((1R,5S)-3,8-diazabicyclo[3.2.1]octan-3-yl)-2-(((S)-1-(2-fluoroethyl)pyrrolidin-2-yl)methoxy)quinazolin-7-yl)naphthalen-2-ol], for which the figures for the 50% inhibitory concentration (IC50) in test [1] and in test [2] were 10 to 100 µM and 0.0001 to 10 µM, respectively.

As to `CN1CCC[C@@H](COc2nc(N3C[C@H]4CC[C@@H](C3)N4)c3ccc(-c4cc(O)cc5ccccc45)cc3n2)C1` [P-0078, 4-(4-((1R,5S)-3,8-diazabicyclo[3.2.1]octan-3-yl)-2-(((R)-1-methylpiperidin-3-yl)methoxy)quinazolin-7-yl)naphthalen-2-ol], the 50% inhibitory concentration (IC50) fell in the range of 10 to 100 µM in test [1] and 0.0001 to 10 µM in test [2].

(Values after US20230081426A1, “COMPOUNDS AND METHODS FOR KRAS MODULATION AND INDICATIONS THEREFOR” (Plexxikon Inc., priority 2020, published 2023).)
